These results are taken from ChEMBL document CHEMBL5550119, “Design, synthesis, and evaluation of formylpiperazine analogs of Ferrostatin-1 as novel improved ferroptosis inhibitors” (Bioorg Med Chem, 2024).

In series [1] the test system is HUVEC. The experiment in a line: Anti-ferroptosis activity in HUVEC cells assessed as inhibition of erastin-induced ferroptosis by measuring lethality suppression incubated for 24 hrs by SRB assay. It counts as functional, cell-based. As to conditions: Homo sapiens.
The nature of series [2]: Solubility of compound in PBS buffer at pH 7.4 at 3.13 to 200 uM incubated for 2 hrs by turbidity based assay. It counts as physicochemical. To be noted: dose 3.13-200 µM.
A short description of series [3]: Antioxidant activity assessed as DPPH radical scavenging activity at 50 uM incubated under dark condition for 30 mins by absorbance based analysis relative to control. Format: functional.
Series [4] in a line: Antioxidant activity assessed as DPPH radical scavenging activity incubated under dark condition for 30 mins by absorbance based analysis. Format: functional.
The subject of series [5] is HUVEC. The experiment in a line: Anti-ferroptosis activity in HUVEC cells assessed as inhibition of erastin-induced ferroptosis by measuring lethality suppression at 10 uM incubated for 24 hrs by SRB assay. To be noted: Homo sapiens. Format: functional, cell-based.
In series [6] the test system is HUVEC. Briefly: Anti-ferroptosis activity in erastin-induced HUVEC cells assessed as reduction in cytoplasmic ferrous ion level at 10 uM incubated for 24 hrs by FerroOrange fluorescent probe based fluorescence microscopic analysis. Format: functional, cell-based. To be noted: Homo sapiens.
Series [7] relates to HUVEC. The experiment in a line: Anti-ferroptosis activity in erastin-induced HUVEC cells assessed as reduction in ROS level by measuring reduction in DCF fluorescence intensity at 10 uM incubated for 24 hrs by DCFH-DA fluorescent probe based fluorescence microscopic analysis. It counts as functional, cell-based. As to conditions: Homo sapiens.
Series [8] relates to HUVEC. The experiment in a line: Anti-ferroptosis activity in erastin-induced HUVEC cells assessed as reduction in mitochondrial impairment by measuring reduction in number of JC-1 monomers at 10 uM incubated for 24 hrs by JC-1 fluorescent probe based fluorescence microscopic analysis. As to conditions: Homo sapiens. Format: functional, cell-based.
Series [9] has as its system HUVEC. The experiment in a line: Anti-ferroptosis activity in erastin-induced HUVEC cells assessed as increase in GSH level at 10 uM incubated for 24 hrs. Format: functional, cell-based. To be noted: Homo sapiens.
In series [10] the test system is HUVEC. Briefly: Anti-ferroptosis activity in erastin-induced HUVEC cells assessed as reduction in malondialdehyde level at 10 uM incubated for 24 hrs. As to conditions: Homo sapiens. Format: functional, cell-based.
Series [11] relates to HUVEC. The experiment in a line: Anti-ferroptosis activity in erastin-induced HUVEC cells assessed as reduction in lipid peroxidation level at 10 uM incubated for 24 hrs. It counts as functional, cell-based. As to conditions: Homo sapiens.
Series [12] relates to HUVEC. The experiment in a line: Anti-ferroptosis activity in erastin-induced HUVEC cells assessed as increase in GPX4 protein level at 10 uM incubated for 24 hrs by Western blot analysis. It counts as functional, cell-based. To be noted: Homo sapiens.
Series [13] can be described thus: Metabolic stability in human liver microsomes assessed as half life at […] incubated for 2 hrs in presence of NADPH by LC-MS/MS analysis. Format: ADME, Microsome.
A short description of series [14]: Metabolic stability in rat liver microsomes assessed as half life at […] incubated for 2 hrs in presence of NADPH by LC-MS/MS analysis. Format: ADME, Microsome.

≈ marks a conversion by molar mass, not a printed value. Calls of active or inactive are those of the source. The rule behind the calls is not given here.

With `O=C(c1ccc(NC2CCCCC2)c(NCc2ccccc2)c1)N1CCN(Cc2ccc(F)cc2Br)CC1`, in the series on HUVEC [1], the half-maximal effective concentration (EC50) stood at 0.73 µM. This compound yielded a solubility (kinetic) at 2 h in series [2] of 28.6 µM (≈ 16.6 µg/mL). The Activity in series [3] is 50.5%. Moreover, in series [4], the half-maximal inhibitory concentration (IC50) was determined as 60.8 µM.
The corresponding values for `O=C(c1ccc(NC2CCCCC2)c(NCc2ccccc2)c1)N1CCN(Cc2ccc(-c3ccccc3)c(-c3ccccc3)c2)CC1` are 0.61 µM, 22.2 µM (≈ 14.1 µg/mL), 54% and 42.9 µM.
For the compound `CN1CCN(C(=O)c2ccc(NC3CCCCC3)c(NCc3ccccc3)c2)CC1`, in the series on HUVEC [5], the result was inactive.
With `O=C(c1ccc(NC2CCCCC2)c(NCc2ccccc2)c1)N1CCN(Cc2ccncc2)CC1`, the 50% effective concentration (EC50) with HUVEC [1] was 0.79 µM. Moreover, the solubility (kinetic) at 2 h in series [2] stood at 20 µM (≈ 9.67 µg/mL). Besides, the Activity in [3] was 55.4%. Further, in [4], the IC50 is 43.6 µM.
As for `CS(=O)(=O)c1ccc(CN2CCN(C(=O)c3ccc(NC4CCCCC4)c(NCc4ccccc4)c3)CC2)cc1`, in the series with HUVEC [1], the concentration giving a half-maximal response (EC50) was 0.5 µM. The compound also showed a kinetic solubility at 2 h in series [2] of 28.6 µM (≈ 16 µg/mL). The Activity in series [3] was 54%. In addition, the 50% inhibitory concentration (IC50) in series [4] amounted to 28.9 µM. For the same compound, the result in the series on HUVEC [6], with HUVEC [7], in the series on HUVEC [8], in the series on HUVEC [9], in the series with HUVEC [10] and in the series on HUVEC [11] was Active. The outcome in the series with HUVEC [12] was Active. The half-life in series [13] is 50.2 min; in [14], 35.7 min.
The compound `CCOC(=O)c1ccc(NC2CCCCC2)c(N)c1` returned a solubility (kinetic) at 2 h in [2] above 200 µM. Also, the Activity in series [3] stood at 52.5%. Also, the half-maximal inhibitory concentration (IC50) in [4] is 54.3 µM. The outcome in the series on HUVEC [6], with HUVEC [7], in the series with HUVEC [8], in the series on HUVEC [9] and in the series on HUVEC [12] was Active. Also, the half-life in [13] was determined as 16.8 min; in series [14] it was 18.4 min.
For `COc1ccc(Br)c(CN2CCN(C(=O)c3ccc(NC4CCCCC4)c(NCc4ccccc4)c3)CC2)c1`, the 50% effective concentration (EC50) in the series with HUVEC [1] is 0.68 µM. In series [2], this compound came in with a solubility (kinetic) at 2 h of 20 µM (≈ 11.8 µg/mL). Moreover, the Activity in series [3] stood at 63.8%. In addition, the IC50 in series [4] worked out at 41.3 µM.
In series [2], `CCOC(=O)c1ccc(NC2CCCCC2)c(NCc2ccccc2)c1` registered a kinetic solubility at 2 h of 6.2 µM (≈ 2.19 µg/mL). Further, in [3], the Activity came to 56.4%. In addition, the IC50 in series [4] came to 46.8 µM.
